Source: patent publication US20220117917A1, “PH-ACTIVATED NANOPARTICLES” (Ohio State Innovation Foundation, priority 2018, published 2022)

Legend:
[1] = set-up: species or system mice; conditions: mouse, in vivo
Experimental: The tumor targeting capability of the nanoparticles was next investigated in mice. Indocyanine green (ICG) was encapsulated in the nanoparticles for in vivo imaging. […] To confirm the observation from whole animal imaging, various organs were harvested for ex vivo imaging to check the biodistribution of ICG after sacrificing the mice at 24 h. […] The antitumor efficacy and safety of the WIP1 and/or miR-21 inhibitor-laden nanoparticles were also investigated in vivo by treating orthotopic HER18R mammary tumor-bearing mice. The tumors were established by injecting 2,000,000 HER18R cells per animal into the fat pad of 6-8 week-old female nude mice. The tumor-bearing mice were divided randomly into four groups: blank nanoparticles, WIP1 inhibitor-laden nanoparticles, miR-21 inhibitor-laden nanoparticles, and WIP1+miR-21 inhibitors-laden nanoparticles. Mice were treated with 1.0 mg/kg body weight of miR-21 inhibitor and/or 5.0 mg/kg of WIP1 inhibitor encapsulated in the nanoparticles via intravenous injection when the tumor reached a volume of ˜150 mm^3 at 21 days after implantation. […] Moreover, side effect of the drug-laden or blank nanoparticles was negligible.

[2] = cited from earlier work
[3] = target: T1, Wip1 (Homo sapiens, UniProt O15297); conditions: cited from earlier work
T1 sequence (O15297 1-605): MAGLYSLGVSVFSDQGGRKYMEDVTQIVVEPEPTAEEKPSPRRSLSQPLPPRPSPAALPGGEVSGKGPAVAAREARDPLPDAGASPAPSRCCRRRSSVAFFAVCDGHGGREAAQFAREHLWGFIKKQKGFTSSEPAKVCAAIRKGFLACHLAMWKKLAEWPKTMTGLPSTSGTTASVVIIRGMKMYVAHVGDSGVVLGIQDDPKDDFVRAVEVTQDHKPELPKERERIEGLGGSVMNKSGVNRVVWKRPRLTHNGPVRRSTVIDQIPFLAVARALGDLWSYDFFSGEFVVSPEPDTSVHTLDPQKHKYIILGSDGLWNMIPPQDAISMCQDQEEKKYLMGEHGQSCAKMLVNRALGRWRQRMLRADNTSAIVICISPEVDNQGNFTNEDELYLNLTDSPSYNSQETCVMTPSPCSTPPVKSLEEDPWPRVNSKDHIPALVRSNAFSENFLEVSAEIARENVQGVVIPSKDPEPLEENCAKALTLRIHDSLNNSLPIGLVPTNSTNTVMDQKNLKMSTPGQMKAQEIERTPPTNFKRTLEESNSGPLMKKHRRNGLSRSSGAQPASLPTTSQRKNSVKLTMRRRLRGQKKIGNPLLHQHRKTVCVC

[4] = cited from earlier work; remark: listed apart in the source
[5] = system: HER18R cells; assay: Cell viability and Western blot, trastuzumab-resistant cells; assay type: cell-based, human; conditions: along with trastuzumab 1 μg/ml, 72 h
[6] = system: HER18 cells; assay: Cell viability and Western blot; assay type: cell-based, human
Experimental: (§1) Immunoblotting. Immunoblotting was performed as described previously (Liu Y, et al. Nature 2015 520:697-701). Briefly, total cell lysates were solubilized in lysis buffer (50 mM Tris, pH 7.5, 150 mM NaCl, 1 mM EDTA, 0.5% NP-40, 0.5% Triton X-100, 1 mM phenylmethylsulfonyl fluoride, 1 mM sodium fluoride, 5 mM sodium vanadate, 1 μg each of aprotinin, leupeptin, and pepstatin per ml). Proteins were resolved by SDS-PAGE gels and then proteins were transferred to PVDF membranes (Bio-Rad). The membranes were blocked with 5% nonfat milk for 1 h at room temperature prior to incubation with indicated primary antibodies. Subsequently membranes were washed and incubated for 1 h at room temperature with peroxidase-conjugated secondary antibodies (Santa Cruz Biotechnology). Following several washes, chemiluminescent images of immunodetected bands on the membranes were recorded on X-ray films using the enhanced chemiluminescence (ECL) system (Perkinelmer) according to the manufacturer's instructions.
(§2) Cell viability assay. Equal numbers of cells were plated in 12 well plates in triplicate. After incubation with indicated reagents for 72 hours, cell viability was quantified using Vi-Cell cell viability analyzer (Beckman Coulter).

[7] = system: BT474 cells; assay: Cell viability and Western blot; assay type: cell-based, human
Experimental: as §1, §2

[8] = system: MDA-MB453 cells; assay: Cell viability; assay type: cell-based, human; conditions: 72 h; mutant p53
Experimental: as §2

[9] = Electrophoretic stability assay of anti-miR21 oligonucleotide; assay type: in vitro ADME; conditions: 37° C.
Experimental: Electrophoretic gel assay. Free anti-miR21 oligonucleotide and in-MW@NP (in PBS or serum) were mixed with loading buffer, and then loaded into 2% wt agarose gel with […] ethidium bromide. Electrophoresis was conducted in 1×TEA buffer at 80 V for 10 min. The result gels were analyzed using a UV illuminator (FluorChem™ E System, CA, USA) to show its location of anti-miR21 oligonucleotide.

## CC1(C)C(/C=C/C=C/C=C/C=C2\N(CCCCS(=O)(=O)O)c3ccc4ccccc4c3C2(C)C)=[N+](CCCCS(=O)(=O)[O-])c2ccc3ccccc3c21 [free ICG, Indocyanine green]
[1]
  ICG fluorescence in liver: weak fluorescence
  ICG signal / localization: no notable signal

## Cc1ncc(Cl)cc1NCc1ccc(C(=O)N[C@@H](CC2CCCC2)C(=O)NC2CC2)s1 [GSK2830371]
[2]
  bioavailability in vivo: poor bioavailability in vivo
[3]
  selectivity for Wip1 over other phosphatases: selectivity for Wip1 over 21 other phosphatases
[4]
  solubility in water: poor solubility in water
[5]
  sensitization to trastuzumab: sensitized
[6]; 72 h, wildtype p53
  sensitivity (cell viability): very sensitive
[6]; immunoblotting
  phosphorylated CHK2 and p21 levels: significantly increased the levels of phosphorylated CHK2 and the p53-induced p21
[7]; 72 h, mutant p53
  sensitivity (cell viability): notably insensitive
[8]
  sensitivity (cell viability): notably insensitive

## anti-miR-21: anti-miR-21 oligonucleotide; in some embodiments UCAACAUCAGUCUGAUAAGCUAG (SEQ ID NO: 5) (further chemistry not given here)
[2]; in vivo
  stability in blood: relatively unstable in blood
[5]
  sensitization to trastuzumab: sensitized
[9]
  onset of degradation: started to degrade in a few minutes
[9]; up to 36 h
  time oligonucleotide observable: less than 2 h
[7]; HER2+/p53-mutant cells with 17q23 amplification
  cell proliferation and viability: significantly reduced the cell proliferation and viability
